Article PMC2914685 (Analytical biochemistry, 2010)
No end group written: not given here.

Key:
Abl SH3 domain [1] = target: T1, Abl SH3 domain (Homo sapiens, UniProt P00519); settings: computationally predicted from the human proteome; ref [30]; [31] (Personal communication); cited from earlier work
Abl SH3 domain [2] = target: T1, Abl SH3 domain; test: Tetracycline repressor-based mammalian two-hybrid assay; assay type: cell-based; settings: HEK 293 cells, 48 hours post-transfection, fluorescence microscopy, Figure 2
Abl SH3 domain (SH3-His) = test: Abl SH3 domain Western blot-type detection; assay type: binding, human; settings: fluorescence under UV 365 nm, estimated, data not shown
SH3-His = SH3-His (human, UniProt P00519 61-121); test: fluorescence polarisation
SH3-His, sequence (P00519 61-121): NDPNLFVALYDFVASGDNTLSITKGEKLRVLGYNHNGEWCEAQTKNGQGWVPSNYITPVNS

T1 sequence (P00519 61-121 limits assumed): as the sequence (P00519 61-121) above

Row | Molecule | predicted binding to Abl SH3 domain (Abl SH3 domain [1]) | interaction with Abl SH3 domain in vivo (AcGFP expression) (Abl SH3 domain [2]) | further results
1 | AAAMQKPSLP [BOT1] | non-binding peptide | – | –
2 | APAFPPPSPP [TOP1] | binding peptide | positive interaction | –
3 | MGAGAPAFPPPSPP@EF-(GFP)-His6 [TOP1-DOPA-GFP] | – | – | lowest limit of detection of SH3-His (Abl SH3 domain (SH3-His)): about 0.5 μg
4 | TetR-BOT1: TetR with dimerization domain replaced with BOT1 (AAAMQKPSLP; also: insert only, fused into TetR protein) | – | does not bind to TetR-SH3 | –
5 | APAFPPPSPP (also: FITC label, position not given here) [TOP1-FITC] | – | – | Kd (SH3-His): 16 ± 1 µM
